# Laboratory results published in US7390923B2, “Propionamide derivatives useful as androgen receptor modulators” (Orion Corporation, priority 2003, dated 2008).
# Target: T1, androgen receptor (AR) (Rattus norvegicus, UniProt P15207)
# T1 construct: Ventral prostates were obtained form rats castrated 24 h prior to sacrifice; from tissue; host or cells: rat ventral prostate cytosol (castrated rats, charcoal-treated)
# T1 sequence (P15207 1-902): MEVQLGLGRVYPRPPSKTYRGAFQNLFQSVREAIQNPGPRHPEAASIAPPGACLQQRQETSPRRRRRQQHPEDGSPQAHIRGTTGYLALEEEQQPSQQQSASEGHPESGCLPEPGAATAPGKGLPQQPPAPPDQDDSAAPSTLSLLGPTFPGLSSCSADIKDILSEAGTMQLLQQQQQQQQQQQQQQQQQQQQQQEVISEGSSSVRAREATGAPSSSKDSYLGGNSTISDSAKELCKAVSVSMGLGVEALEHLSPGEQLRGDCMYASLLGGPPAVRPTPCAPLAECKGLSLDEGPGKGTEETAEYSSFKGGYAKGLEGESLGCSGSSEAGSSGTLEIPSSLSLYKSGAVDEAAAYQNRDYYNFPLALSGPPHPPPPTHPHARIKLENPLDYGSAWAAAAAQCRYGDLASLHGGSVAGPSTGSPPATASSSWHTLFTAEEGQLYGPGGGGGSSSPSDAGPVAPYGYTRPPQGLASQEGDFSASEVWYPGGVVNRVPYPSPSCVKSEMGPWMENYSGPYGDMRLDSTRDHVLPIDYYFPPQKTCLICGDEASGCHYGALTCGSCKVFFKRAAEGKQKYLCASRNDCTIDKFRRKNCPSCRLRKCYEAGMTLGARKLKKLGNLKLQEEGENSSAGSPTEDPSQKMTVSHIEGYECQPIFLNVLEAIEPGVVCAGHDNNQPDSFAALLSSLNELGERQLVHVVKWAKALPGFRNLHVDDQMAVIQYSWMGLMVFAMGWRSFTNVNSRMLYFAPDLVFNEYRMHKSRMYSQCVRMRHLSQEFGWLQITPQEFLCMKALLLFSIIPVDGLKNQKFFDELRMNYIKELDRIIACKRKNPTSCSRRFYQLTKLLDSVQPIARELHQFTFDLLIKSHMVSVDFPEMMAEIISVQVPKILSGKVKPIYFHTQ
# Test: AR binding assay, competition with [3H]-mibolerone binding in rat ventral prostate cytosol
# Details: 1 nM [3H]-mibolerone, overnight at 0° C.; for inhibition at 0.2 µM / Inhibition (%) of [3H]-mibolerone binding at 0.2 μM: test compound 0.2 μM; for inhibition at 2 µM / Inhibition (%) of [3H]-mibolerone binding at 2.0 μM: test compound 2.0 μM
# Protocol: Ventral prostates were obtained form rats castrated 24 h prior to sacrifice. Fresh prostate was minced and washed with Buffer A (Schilling and Liao, Prostate, 5:581-588, 1984). The minces were then homogenized in 3× volume of Buffer A containing protease inhibitors (Complete, Mini, EDTA-free Roche). The homogenate was centrifuged at 30000 g for 30 min. The resultant supernatants were treated with 1×volume of dextran-coated charcoal solution (12.5 g activated charcoal, 12.5 g dextran per liter of buffer A) to remove endogenous steroids. The samples were incubated for 5 min and centrifuged at 16000 g for 10 min. Aliquots of the charcoal-treated cytosol were taken for androgen receptor assays. All procedures were carried out at 0-4° C.
# Cytosol androgen receptor concentration was determined as described (Isomaa et al., Endocrinology, 111: 833-843, 1982) with minor modifications. Cytosol preparations were prepared as described above, and bound and free steroids were separated by treatment with an equal volume of dextran-charcoal suspension for 5 min at 4° C. followed by centrifugation at 16000 g for 10 min. Bound radioactivity was determined by counting supernatant fractions in 1 ml of OptiPhase HiSafe3 or OptiPhase Supermix (PerkinElmer).
# Cytosol preparations were labelled with 1 nM [^3H]-mibolerone overnight at 0° C. (total). To determine AR binding activity of the compounds of the present invention (test compounds), the ability of test compounds to compete with [^3H]7α,17α-dimethyl-17β-hydroxy-4-estren-3-one ([^3H]-mibolerone) binding was studied. 1 nM [^3H]-mibolerone and test compounds in two concentrations (0.2 and 2 uM) were incubated overnight at 0° C. To determine non-specific binding, parallel incubations were carried out using 1 nM concentration [^3H]-mibolerone with 500-fold molar excess of unlabelled testosterone. Two to four replicates were used for each sample. After incubation, bound and free steroids were separated as described above and bound radioactivity was determined. The ability of the test compounds to bind AR is reported as reduction in bound radioactivity obtained with 1 nM [^3H]-mibolerone. The results (% inhibition) were calculated as: % inhibition=100−(100×(averagetest compound/averagetotal)).
Compound,inhibition at 0.2 µM,inhibition at 2 µM,Inhibition (%) of [3H]-mibolerone binding at 0.2 μM,Inhibition (%) of [3H]-mibolerone binding at 2.0 μM
"CC(=O)c1ccc(OCC(C)(O)C(=O)Nc2ccc([N+](=O)[O-])c(C)c2)cc1 (centres unmarked) [Example 16, 3-(4-Acetylphenoxy)-2-hydroxy-2-methyl-N-(3-methyl-4-nitrophenyl)propionamide]",50%,91%,–,–
"Cc1cc(NC(=O)C(C)(O)COc2ccc(C#N)cc2)ccc1[N+](=O)[O-] (centres unmarked) [Example 17, 3-(4-Cyanophenoxy)-2-hydroxy-2-methyl-N-(3-methyl-4-nitrophenyl)propionamide]",95%,98%,–,–
"Cc1cc(NC(=O)C(C)(O)COc2cccc(F)c2)ccc1[N+](=O)[O-] (centres unmarked) [Example 18, 3-(3-Fluorophenoxy)-2-hydroxy-2-methyl-N-(3-methyl-4-nitrophenyl)propionamide]",90%,99%,–,–
"Cc1cc(NC(=O)C(C)(O)COc2ccccc2F)ccc1[N+](=O)[O-] (centres unmarked) [Example 19, 3-(2-Fluorophenoxy)-2-hydroxy-2-methyl-N-(3-methyl-4-nitrophenyl)propionamide]",83%,99%,–,–
"Cc1cc(NC(=O)C(C)(O)COc2ccc(CCO)cc2)ccc1[N+](=O)[O-] (centres unmarked) [Example 20, 2-Hydroxy-3-[4-(2-hydroxyethyl)phenoxy]-2-methyl-N-(3-methyl-4-nitrophenyl)propionamide]",13%,83%,–,–
"Cc1cc(NC(=O)C(C)(O)COc2c(Cl)cccc2Cl)ccc1[N+](=O)[O-] (centres unmarked) [Example 21, 3-(2,6-Dichlorophenoxy)-2-hydroxy-2-methyl-N-(3-methyl-4-nitrophenyl)propionamide]",26%,91%,–,–
"Cc1cc(NC(=O)C(C)(O)COc2ccc(Cl)cc2)ccc1[N+](=O)[O-] (centres unmarked) [Example 23, 3-(4-Chlorophenoxy)-2-hydroxy-2-methyl-N-(3-methyl-4-nitrophenyl)propionamide]",88%,92%,–,–
"Cc1cc(NC(=O)C(C)(O)COc2ccc(Br)cc2)ccc1[N+](=O)[O-] (centres unmarked) [Example 24, 3-(4-Bromophenoxy)-2-hydroxy-2-methyl-N-(3-methyl-4-nitrophenyl)propionamide]",75%,93%,–,–
"COc1ccc(OCC(C)(O)C(=O)Nc2ccc([N+](=O)[O-])c(C)c2)cc1 (centres unmarked) [Example 25, 2-Hydroxy-3-(4-methoxyphenoxy)-2-methyl-N-(3-methyl-4-nitrophenyl)propionamide]",96%,98%,–,–
"Cc1cc(NC(=O)C(C)(O)COc2ccc3c(c2)OCO3)ccc1[N+](=O)[O-] (centres unmarked) [Example 26, 3-(Benzo[1,3]dioxol-5-yloxy)-2-hydroxy-2-methyl-N-(3-methyl-4-nitrophenyl)propionamide]",62%,92%,–,–
"COc1ccc(OCC(C)(O)C(=O)Nc2ccc([N+](=O)[O-])c(C)c2)cc1OC (centres unmarked) [Example 27, 3-(3,4-Dimethoxyphenoxy)-2-hydroxy-2-methyl-N-(3-methyl-4-nitrophenyl)propionamide]",34%,89%,–,–
"Cc1cc(NC(=O)C(C)(O)COc2ccc(F)c(F)c2)ccc1[N+](=O)[O-] (centres unmarked) [Example 28, 3-(3,4-Difluorophenoxy)-2-hydroxy-2-methyl-N-(3-methyl-4-nitrophenyl)propionamide]",90%,88%,–,–
"Cc1cc(NC(=O)C(C)(O)COc2cc(C)c(Cl)c(C)c2Cl)ccc1[N+](=O)[O-] (centres unmarked) [Example 29, 3-(2,4-Dichloro-3,5-dimethylphenoxy)-2-hydroxy-2-methyl-N-(3-methyl-4-nitrophenyl)propionamide]",92%,90%,–,–
"Cc1cc(NC(=O)C(C)(O)COc2ccc3cc(Br)ccc3c2)ccc1[N+](=O)[O-] (centres unmarked) [Example 30, 3-(6-Bromonaphtalen-2-yloxy)-2-hydroxy-2-methyl-N-(3-methyl-4-nitrophenyl)-propionamide]",–,–,80%,99%
"CC(=O)Nc1ccc(OCC(C)(O)C(=O)Nc2ccc([N+](=O)[O-])c(C)c2)cc1C(F)(F)F (centres unmarked) [Example 31, 3-(4-Acetylamino-3-trifluoromethylphenoxy)-2-hydroxy-2-methyl-N-(3-methyl-4-nitrophenyl)propionamide]",18%,75%,–,–
"Cc1cc(NC(=O)C(C)(O)COc2ccc(C(=O)c3ccc(Cl)cc3)cc2)ccc1[N+](=O)[O-] (centres unmarked) [Example 36, 3-[4-(4-Chlorobenzoyl)phenoxy]-2-hydroxy-2-methyl-N-(3-methyl-4-nitrophenyl)propionamide]",3%,50%,–,–
"Cc1cc(NC(=O)C(C)(O)COc2ccc(C#N)c(F)c2)ccc1[N+](=O)[O-] (centres unmarked) [Example 42, 3-(4-Cyano-3-fluorophenoxy)-2-hydroxy-2-methyl-N-(3-methyl-4-nitrophenyl)propionamide]",83%,97%,–,–
"Cc1cc(NC(=O)[C@@](C)(O)COc2ccc(C#N)c(F)c2)ccc1[N+](=O)[O-] [Example 43, (2S)-3-(4-Cyano-3-fluorophenoxy)-2-hydroxy-2-methyl-N-(3-methyl-4-nitrophenyl)propionamide]",95%,99%,–,–
"Cc1cc(NC(=O)C(C)(O)COc2ccc(Cl)c([N+](=O)[O-])c2)ccc1[N+](=O)[O-] (centres unmarked) [Example 44, 3-(4-Chloro-3-nitrophenoxy)-2-hydroxy-2-methyl-N-(3-methyl-4-nitrophenyl)propionamide]",83%,100%,–,–
"CCOC(=O)Nc1ccc(OCC(C)(O)C(=O)Nc2ccc([N+](=O)[O-])c(C)c2)cc1F (centres unmarked) [Example 50, {2-Fluoro-4-[2-hydroxy-2-(3-methyl-4-nitrophenylcarbamoyl)propoxy]-phenyl}carbamic acid ethyl ester]",96%,99%,–,–
"CC(O)(COc1ccc(C#N)c(F)c1)C(=O)Nc1ccc([N+](=O)[O-])c(CO)c1 (centres unmarked) [Example 51, 3-(4-Cyano-3-fluorophenoxy)-2-hydroxy-N-(3-hydroxymethyl-4-nitrophenyl)-2-methylpropionamide]",73%,92%,–,–
"Cc1cc(NC(=O)C(C)(O)CNc2ccc(F)cc2)ccc1[N+](=O)[O-] (centres unmarked) [Example 52, 3-(4-Fluorophenylamino)-2-hydroxy-2-methyl-N-(3-methyl-4-nitrophenyl)propionamide]",90%,115%,–,–
"Cc1cc(NC(=O)C(C)(O)CNc2ccc(C#N)cc2)ccc1[N+](=O)[O-] (centres unmarked) [Example 55, 3-(4-Cyanophenylamino)-2-hydroxy-2-methyl-N-(3-methyl-4-nitrophenyl)propionamide]",87%,99%,–,–
"Cc1cc(NC(=O)C(C)(O)CNc2ccc(C#N)c(Cl)c2)ccc1[N+](=O)[O-] (centres unmarked) [Example 56, 3-(3-Chloro-4-cyanophenylamino)-2-hydroxy-2-methyl-N-(3-methyl-4-nitrophenyl)propionamide]",90%,95%,–,–
"Cc1cc(NC(=O)C(C)(O)COc2ccncc2)ccc1[N+](=O)[O-] (centres unmarked) [Example 58, 2-Hydroxy-2-methyl-N-(3-methyl-4-nitrophenyl)-3-(pyridin-4-yloxo)propionamide]",–,–,84%,93%
